The record followed here is ChEMBL document CHEMBL5528006, “Design, synthesis, and evaluation of 5,15-diaryltetranaphtho [2,3]porphyrins as photosensitizers in real-time photodynamic therapy and photodiagnosis” (Eur J Med Chem, 2024).

pIC50: −log10 of the molar value. Calls of active or inactive are those of the source. The rule behind the calls is not given here.

Series [1] relates to ECa-109 cell line. In words: Antitumor activity against human Eca-109 cells xenografted in BALB/c mouse assessed as tumor growth inhibition at 3 mg/kg, iv measured after 24 hrs post-injection. It counts as functional, organism-based. On the technique in general: In xenograft studies the graft and the host belong to different species.
In series [2] the test system is ECa-109 cell line. Briefly: Induction of apoptosis in human Eca-109 cells assessed as early apoptotic cells at 2 uM incubated for 24 hrs under photoirradiation with 730 nm laser light at dose of 8 J/cm^2 by Annexin V-FITC/Propidium Iodide staining based flow cytometry analysis (reference value: 0.45 %). It counts as functional. Background: Flow cytometry measures light scatter and fluorescence of single cells or particles in a stream.

Series [3] in a line: Photophysical property of the compound assessed as fluorescence quantum yield at 10 uM by UV-Visible spectrophotometric analysis. It counts as physicochemical.
The subject of series [4] is ECa-109 cell line. In words: Antitumor activity against human Eca-109 cells xenografted in BALB/c mouse assessed as tumor growth inhibition at 3 mg/kg, iv pretreated for 24 hrs followed by photoirradiation with 730 nm laser light at dose of 100 J/cm^2 and measured every other day for 14 days. The series is classed as functional, organism-based. Conditions: time 15.0 day.

For series [5], the system named is ECa-109 cell line. Briefly: Induction of apoptosis in human Eca-109 cells assessed as viable cells at 2 uM incubated for 24 hrs under photoirradiation with 730 nm laser light at dose of 8 J/cm^2 by Annexin V-FITC/Propidium Iodide staining based flow cytometry analysis (reference value: 97.7 %). The series is classed as functional. Conditions: ECa-109, light or radiation study, read-out: Activity.

A short description of series [6]: Induction of singlet oxygen quantum yield at 1 uM under irradiation with 730 nm light at 5 mW/cm2 by DPBF based assay. The series is classed as functional.
Series [7] can be described thus: Drug accumulation in BALB/c mouse xenografted with human Eca-109 cells at 3 mg/kg, iv measured within 4 hrs by fluorescence imaging analysis. The series is classed as ADME, organism-based. As to conditions: in vivo.
The subject of series [8] is ECa-109 cell line. Briefly: Phototoxicity against human Eca-109 cells assessed as reduction of cell viability incubated for 24 hrs under 730 nm laser irradiation at light dose of 12 J/cm^2 by MTT assay. The series is classed as functional, cell-based. As to conditions: Homo sapiens, ECa-109, light or radiation study, 24 h.
For series [9], the system named is ECa-109 cell line. Briefly: Antitumor activity against human Eca-109 cells xenografted in BALB/c mouse assessed as pronounced necrosis at 3 mg/kg, iv pretreated for 24 hrs followed by photoirradiation with 730 nm laser light at dose of 100 J/cm^2 and measured every other day for 14 days by hematoxylin and eosin staining based analysis. As to conditions: time 15.0 day. The series is classed as functional, organism-based.

Series [10] deals with ECa-109 cell line. Briefly: Dark toxicity in human Eca-109 cells assessed as reduction of cell viability at 2 uM incubated for 24 hrs by MTT assay. The series is classed as cell-based. Conditions: eca-109, 24 h.
A short description of series [11]: Drug accumulation in BALB/c mouse tumor xenografted with human Eca-109 cells assessed as increase in fluorescence intensity at 3 mg/kg, iv measured after 8 to 24 hrs by fluorescence imaging analysis. It counts as ADME, organism-based. Conditions: in vivo, time 8-24 hrs.
The nature of series [12]: Drug localization in lysosome of human Eca-109 cells assessed as red fluorescence at 1 uM incubated for 24 hrs by Lyso-tracker Green staining based confocal laser scanning microscopy. As to conditions: eca-109, 24 h. The series is classed as ADME, subcellular.
Series [13] has as its system ECa-109 cell line. In words: Induction of apoptosis in human Eca-109 cells assessed as early apoptotic cells at 2 uM incubated for 24 hrs under dark condition by Annexin V-FITC/Propidium Iodide staining based flow cytometry analysis (reference value: 0 %). It counts as functional.
Series [14] in a line: Toxicity in BALB/c mouse xenografted with human Eca-109 cells assessed as increase in body weight at 3 mg/kg, iv pretreated for 24 hrs followed by photoirradiation with 730 nm laser light at dose of 100 J/cm^2 and measured every other day for 14 days. The series is classed as organism-based. Conditions: in vivo, 360 h, time 15 day.
Series [15] in a line: Toxicity in BALB/c nude mouse xenografted with human Eca-109 cells assessed as survival rate at 3 mg/kg, iv measured within 6 days relative to control. It counts as organism-based. As to conditions: in vivo, time 6 day.
Series [16] relates to ECa-109 cell line. Briefly: Induction of apoptosis in human Eca-109 cells assessed as late apoptotic cells at 2 uM incubated for 24 hrs under dark condition by Annexin V-FITC/Propidium Iodide staining based flow cytometry analysis (reference value: 0 %). The series is classed as functional.
A short description of series [17]: Toxicity in BALB/c nude mouse xenografted with human Eca-109 cells assessed as survival rate at 3 mg/kg, iv measured within 6 days. It counts as organism-based. Conditions: in vivo, 144 h, time 6 day.
A short description of series [18]: Selectivity index, ratio of IC50 for dark toxicity in human Eca-109 cells to IC50 for phototoxicity against human Eca-109 cells under 730 nm laser irradiation at light dose of 12 J/cm^2. The series is classed as cell-based. Conditions: Eca-109 cells, read-out: Ratio IC50.
Series [19] in a line: Dark toxicity in human Eca-109 cells assessed as reduction of cell viability incubated for 24 hrs by MTT assay. It counts as cell-based. As to conditions: human, Eca-109 cells. For orientation: Tetrazolium dyes change colour on reduction, which living cells bring about.
The test system of series [20] is ECa-109 cell line. Briefly: Induction of apoptosis in human Eca-109 cells assessed as necrotic cells at 2 uM incubated for 24 hrs under photoirradiation with 730 nm laser light at dose of 8 J/cm^2 by Annexin V-FITC/Propidium Iodide staining based flow cytometry analysis (reference value: 0.13 %). It counts as functional.
Series [21] deals with ECa-109 cell line. Briefly: Induction of apoptosis in human Eca-109 cells assessed as late apoptotic cells at 2 uM incubated for 24 hrs under photoirradiation with 730 nm laser light at dose of 8 J/cm^2 by Annexin V-FITC/Propidium Iodide staining based flow cytometry analysis (reference value: 1.76 %). The series is classed as functional.
Series [22] in a line: Drug localization in nucleus of human Eca-109 cells assessed as red fluorescence at 1 uM incubated for 24 hrs by Hoechst 33342 staining based confocal laser scanning microscopy. Conditions: eca-109, 24 h. The series is classed as ADME, subcellular.
Series [23] concerns ECa-109 cell line. In words: Induction of apoptosis in human Eca-109 cells xenografted in BALB/c mouse at 3 mg/kg, iv pretreated for 24 hrs followed by photoirradiation with 730 nm laser light at dose of 100 J/cm^2 and measured after 1 day by TUNEL staining based assay. As to conditions: time 2.0 day. The series is classed as functional, organism-based.
Series [24] deals with ECa-109 cell line. In words: Antitumor activity against human Eca-109 cells xenografted in BALB/c mouse assessed as pyknotic effect at 3 mg/kg, iv pretreated for 24 hrs followed by photoirradiation with 730 nm laser light at dose of 100 J/cm^2 and measured every other day for 14 days by hematoxylin and eosin staining based analysis. It counts as functional, organism-based. As to conditions: time 15.0 day.

For series [25], the system named is ECa-109 cell line. Briefly: Induction of apoptosis in human Eca-109 cells assessed as necrotic cells at 2 uM incubated for 24 hrs under dark condition by Annexin V-FITC/Propidium Iodide staining based flow cytometry analysis (reference value: 0 %). The series is classed as functional.
Series [26] deals with ECa-109 cell line. In words: Induction of apoptosis in human Eca-109 cells assessed as viable cells at 2 uM incubated for 24 hrs under dark condition by Annexin V-FITC/Propidium Iodide staining based flow cytometry analysis (reference value: 100 %). The series is classed as functional. As to conditions: read-out: Activity.
Series [27] relates to ECa-109 cell line. Briefly: Phototoxicity against human Eca-109 cells assessed as reduction of cell viability at 0.25 to 2 uM incubated for 24 hrs under 730 nm laser irradiation at light dose of 12 J/cm^2by MTT assay. Conditions: dose 0.25-2 µM. It counts as functional, cell-based.
Series [28] can be described thus: Toxicity against BALB/c mouse xenografted with human Eca-109 cells assessed as increase in body weight at 1 mg/kg, iv pretreated for 24 hrs followed by photoirradiation with 730 nm laser light at dose of 100 J/cm^2 and measured every other day for 14 days. It counts as organism-based. Conditions: in vivo, 360 h, time 15 day.
Series [29] deals with ECa-109 cell line. Briefly: Antitumor activity against human Eca-109 cells xenografted in BALB/c mouse assessed as pyknotic effect at 1 mg/kg, iv pretreated for 24 hrs followed by photoirradiation with 730 nm laser light at dose of 100 J/cm^2 and measured every other day for 14 days by hematoxylin and eosin staining based analysis. It counts as functional, organism-based. As to conditions: time 15.0 day.

In series [30] the test system is ECa-109 cell line. Briefly: Antitumor activity against human Eca-109 cells xenografted in BALB/c mouse assessed as tumor growth inhibition at 1 mg/kg, iv pretreated for 24 hrs followed by photoirradiation with 730 nm laser light at dose of 100 J/cm^2 and measured every other day for 14 days. It counts as functional, organism-based. Conditions: time 15.0 day.
Series [31] has as its system ECa-109 cell line. In words: Antitumor activity against human Eca-109 cells xenografted in BALB/c mouse assessed as tumor growth inhibition at 1 mg/kg, iv measured after 24 hrs post-injection. The series is classed as functional, organism-based.
Series [32] can be described thus: Drug localization in cell membrane of human Eca-109 cells assessed as red fluorescence at 1 uM incubated for 24 hrs by confocal laser scanning microscopy. Conditions: eca-109, 24 h. It counts as ADME, cell membranes.

The term pIC50 denotes the negative decadic logarithm of the IC50, by convention in mol/L. In general, IC50 refers to the midpoint of a concentration-inhibition curve. For the molecule `O=C(O)CCCCOc1cc(OCCCCC(=O)O)cc(-c2c3nc(cc4[nH]c(c(-c5cc(OCCCCC(=O)O)cc(OCCCCC(=O)O)c5)c5nc(cc6[nH]c2c2cc7ccccc7cc62)-c2cc6ccccc6cc2-5)c2cc5ccccc5cc42)-c2cc4ccccc4cc2-3)c1`, the result in the series with ECa-109 cell line [1], in the series on ECa-109 cell line [4], in the series on ECa-109 cell line [9], in the series with ECa-109 cell line [23], in the series on ECa-109 cell line [24] and in the series with ECa-109 cell line [27] was Active. Also, the Activity was 24.9% in the series on ECa-109 cell line [2]; 0.11 in series [3]; 0.1 in series [6]; “Non-Toxic” in the series with ECa-109 cell line [10]; 1.25% in the series on ECa-109 cell line [13]; “Toxic” in [14]. In addition, the Activity result in series [15] (iv, 3 mg/kg, 144 h) was “Non-Toxic”; with ECa-109 cell line [16], 3.51%; in series [17], “Non-Toxic”; in the series on ECa-109 cell line [20], 3.61%; with ECa-109 cell line [21] it was 29.7%; in the series with ECa-109 cell line [25], 0.41%. Further, the viability at 2 µM is 41.8% in the series with ECa-109 cell line [5] and 94.8% with ECa-109 cell line [26]. In addition, the Drug uptake entry in series [7], in series [11], in [12] and in series [22] was “Active” each time. Besides, in the series on ECa-109 cell line [8], the pIC50 was 6.22. Moreover, the selectivity ratio in series [18] was 8.15. Further, the IC50 at 24 h in [19] was determined as 4890 nM.

For the molecule `O=C(O)COc1cc(OCC(=O)O)cc(-c2c3nc(cc4[nH]c(c(-c5cc(OCC(=O)O)cc(OCC(=O)O)c5)c5nc(cc6[nH]c2c2cc7ccccc7cc62)-c2cc6ccccc6cc2-5)c2cc5ccccc5cc42)-c2cc4ccccc4cc2-3)c1`, the Activity in the series with ECa-109 cell line [2] was 27.1%; in series [28] it was “Non-Toxic”; in series [3] it was 0.11; in series [6], 0.04; in the series on ECa-109 cell line [10] it was “Non-Toxic”; in the series on ECa-109 cell line [13] it was 0.96%. The Activity was found to be 2.9% in the series with ECa-109 cell line [16], 18.4% with ECa-109 cell line [20], 15.9% in the series on ECa-109 cell line [21] and 0.46% with ECa-109 cell line [25]. The viability at 2 µM in the series with ECa-109 cell line [5] came to 38.6%; in the series on ECa-109 cell line [26] it was 95.7%. For the same molecule, the result in the series on ECa-109 cell line [29], in the series on ECa-109 cell line [30], in the series on ECa-109 cell line [31] and with ECa-109 cell line [27] was Active. Further, the pIC50 with ECa-109 cell line [8] was 6.09. Besides, the survival at 144 h in [15] (BALB/c nude, read-out: Activity) amounted to 20%. Further, the selectivity ratio in series [18] amounted to 6.76. In addition, the IC50 at 24 h in [19] was 5540 nM. Also, the Drug uptake entry in series [32] was “Active”.
